Values joined by “and” are separate entries in the source; they are usually repeats but may differ in a detail not shown here. Equal entries are not always repeated. “Also recorded” adds a separate entry of the source. Where two headings read alike, the source gives them in different places.
How the values were obtained:
human NSCLC NCI-H460 [1] = assay: Human NSCLC NCI-H460 xenograft; conditions: for mean tumor volume at which ulceration developed: SC 2770; for deaths in group / mice that developed tumor ulceration: NCI-H460 xenograft; for deaths in group: n = 10 per group, NUC041: 0.6 mg group; for mice that developed tumor ulceration: NUC041 both PPD groups, evaluable mice, SC 4 of 10; for Median survival: p = NS
Description: Survival refers to animals that were not removed from the study by death or per protocol euthanasia.
Mice with tumors in the proper volume range were arbitrarily assigned to groups. Mice received test article as described in the text. Mice were observed daily for mortality and moribundity with weights and the tumor measurements taken twice weekly. Tumor volume was determined using the formula for an ellipsoid sphere: Length × Width^2/2 = Volume (mm^3). The experiments were scheduled to last 60 days from the day of tumor implant.

[2] = tested on: human colon cancer (LoVo); assay: Mouse xenograft model of human colon cancer (LoVo); assay type: in vivo, NCr-nu/nu mice
Description: NUC041 in LNE was tested at 30 mg/kg IV for three consecutive days a week for three weeks in a mouse xenograft model of human colon cancer (Lovo) and compared to saline control (SC).
Study initiation began when the required number of mice had tumors of approximately 40 to 75 mm^3. […] Study initiation began when the required number of mice had tumors of approximately 32 to 75 mm^3.
Mice received test article as described in the text. […] Any animal whose weight decreased more than 30% from the weight on the first day of treatment or whose tumor reached 4000 mm^3 in volume, ulcerated, sloughed off, or was moribund was euthanized prior to study termination.

Colon Cancer HCT-116 = assay: GI50 in colon cancer HCT-116 cells (CellTiter-Glo); assay type: cell-based, human
Description: (§1) As per methods previously presented, cells were grown in an appropriate medium for the cell line of interest. 96 well plates of each cell line were seeded with 5000 cells per well and left overnight. […] Luminescence was recorded on a Synergy 4.0 (BioTek Instruments, Winooski, VT, USA). Assays were performed in triplicate.

[3] = Pharmacokinetics in mouse whole blood after IM NUC041 in PEG-phospholipid depot (PPD); conditions: analyte in whole blood, NUC041 3 mg/mouse IM in PPD, mice
Description: Quantitative determination of NUC013 and NUC041 in quenched mouse whole blood was accomplished using protein precipitation and high-performance liquid chromatography with tandem mass spectrometry detection. Gemcitabine-^13C, ^15N2 “GemC-^13C”, was used as the internal standard. NUC013, NUC041 and GemC-^13C were extracted from 50 µL whole blood using protein precipitation with acetonitrile. Extracts were analyzed by hydrophilic interaction chromatography at 35 °C, using a XBridge™ Amide column (Waters Corp., Milford, MA, USA) under isocratic conditions, with 100 mM ammonium acetate pH 9: ethanol: acetonitrile (25:25:500, v/v/v) as mobile phase A. Column effluents at a constant flow rate of 300 µL/min were analyzed by multiple reaction monitoring (MRM) using a triple quadrupole mass spectrometer in positive-ion mode (AB Sciex 4000 Q Trap, equipped with TurboV IonSpray®) (SCIEX, Framingham, MA, USA).
The calibration curve for each analyte was fitted using weighted (1/x^2) linear regression analysis of the Analyte/IS peak area ratio versus Analyte/IS concentration ratio from 5–5000 ng/mL.
Pharmacokinetic parameters were calculated from mean concentrations of NUC-041 or NUC013 in blood over time for mice using Phoenix® WinNonlin® (Version 6.3; Pharsight, A Certara Company; Cary, NC, USA).
The PEG-phospholipid depot (Latitude Pharmaceuticals, San Diego, CA, USA) comprised of S-100, DSPE-PEG 2000, sesame oil, and alcohol. These four constituents were placed in a vial, warmed to 40 °C until all products dissolved, and the vehicle was then vortexed. Subsequently, the vehicle was filtered through a 0.22 µm syringe filter and NUC041 was added. The formulated product was heated to 40 °C, vortexed, and stored at 2–8 °C.

human NSCLC NCI-H460 [4] = assay: Tumor histology of NCI-H460 xenografts; assay type: in vivo, NCr-nu/nu mice
Description: Approximately half of each tumor was fixed in 10% neutral-buffered formalin and the other half was frozen. The fixed neoplasm was trimmed, processed, embedded, and microtomed (approximately 5 µm sections). Tissue sections were mounted on glass slides, stained with hematoxylin and eosin (H&E), and coverslipped. Slides were submitted to a veterinary pathologist for a histopathologic evaluation.

NSCLC NCI-H460 = assay: GI50 in NSCLC NCI-H460 cells (CellTiter-Glo); assay type: cell-based, human
Description: as §1

[5] = Pharmacokinetics in mouse whole blood after IV NUC041 in lipid nano-emulsion (LNE); conditions: analyte in whole blood, NUC041 15 mg/kg IV in LNE vehicle, mice
Description: As per methods previously presented, the lipid nano-emulsion (Latitude Pharmaceuticals, San Diego, CA, USA) contained an oil phase consisting of an injectable oil and lecithin and an aqueous phase comprising a tonicity adjuster, a stabilizer, and water.

[6] = Tolerability studies of NUC041 formulated in PPD; assay type: in vivo, mice
Description: Administration of 50 µL of PPD vehicle IM led to a weight loss of 10.9% two days following vehicle administration. NUC041 was formulated at a concentration of 60 mg/mL in this vehicle.

[7] = set-up: method as in PMID 28726739; conditions: mice; cited from earlier work
[8] = continuous infusion over seven days, patients with refractory solid tumors; cited from earlier work
[9] = Mice 2-4 (individual), NUC041 0.6 mg/mouse qod, euthanasia day 34
[10] = Mouse 1, NUC041 2.4/3.0 mg/mouse qwk + dexamethasone, euthanasia day 35
[11] = IM, mice premedicated with dexamethasone 50 µg IP

In the case of “3′,5′-di-trimethylsilyl-2′,2′-difluoro-5-azadeoxycytidine [NUC041]”, the “mean tumor volume at which ulceration developed” value (human NSCLC NCI-H460 [1]; 0.6 mg NUC041 group, p = 0.0068) is reported as 1474 mm^3, the “mean tumor volume at which ulceration developed” value (human NSCLC NCI-H460 [1]; 3 mg NUC041 with dexamethasone group, p = 0.0043) is reported as 1319 mm^3 and the deaths in group (human NSCLC NCI-H460 [1]) is reported as “two”. For the same molecule, the “mice that developed tumor ulceration” value (human NSCLC NCI-H460 [1]) was 15 of 18, the Median survival (human NSCLC NCI-H460 [1]; NUC041 0.6 mg IM qod x 15) was 24.5 days and the peak tumor volume (human NSCLC NCI-H460 [1]; NUC041 0.6 mg group, Mice 3 and 4) was 3179 mm^3 and 1913 mm^3. The “regression in tumor volume” value (human NSCLC NCI-H460 [1]; NUC041 0.6 mg group, two individual mice with ulcerated tumors (Mice 3 and 4), day 25 to 32) was 38% and 51%, the Median survival (human NSCLC NCI-H460 [1]; NUC041 2.4 mg/mouse IM qwk x 3 then 3.0 mg/mouse qwk x 1 with 50 µg dexamethasone IP) was 25.5 days and the “survival benefit vs SC” value (human NSCLC NCI-H460 [1]; NUC041 in PPD with or without dexamethasone pretreatment) was “no survival benefit”. The “mice with tumor ulcerations, LoVo study” value ([2]; NUC041 administered IV in LNE, SC 3/10) was 2/10, the “efficacy in xenograft model of human colon cancer (LoVo)” value ([2]; NUC041 in LNE 30 mg/kg IV) was “only moderate efficacy” and the “study days on which growth of LoVo was significantly inhibited compared to SC” value ([2]; NUC041 in LNE 30 mg/kg IV, three consecutive days a week for three weeks, p < 0.05) was 27–30 study days. The GI50 (Colon Cancer HCT-116; 72 h exposure) was 2800 nM, the AUCinf [3] was 6261 ng·h/mL and the AUClast [3] was 6030 ng·h/mL. It also gave a Cmax [3] of 4210 ng/mL, an MRT [3] of 156 min and a T1/2 [3] of 102 min. The Tmax [3] was 30 min, the Vz/F [3] was 1.172 L/kg and the “Tumor Volume” value (human NSCLC NCI-H460 [4]; [9]) was 3035 mm^3 and 1960 mm^3 and 936 mm^3. The Ulceration (human NSCLC NCI-H460 [4]; [9]) was “no ulceration; also recorded: ulceration”, the “Histopathology: necrosis” value (human NSCLC NCI-H460 [4]; Mice 2-4 (individual), NUC041 0.6 mg/mouse qod, euthanasia day 34, in ulcerated tumors excludes area of ulceration) was 50–60% necrosis and 10% necrosis * and 5% necrosis * and the “Histopathology: necrosis” value (human NSCLC NCI-H460 [4]; [10]) was 30–40% necrosis. The “Tumor Volume” value (human NSCLC NCI-H460 [4]; [10]) was 2746 mm^3, the Ulceration (human NSCLC NCI-H460 [4]; [10]) was “no ulceration” and the GI50 (NSCLC NCI-H460; 72 h exposure) was 1610 nM. It also gave an AUCinf [5] of 590.6 ng·h/mL, an AUClast [5] of 580.4 ng·h/mL and a Cl [5] of 423 mL/min/kg. For the same molecule, the Cmax [5] was 2803 ng/mL, the T1/2 [5] was 11 min and the Vss [5] was 4.431 L/kg. The Tmax ([5]; for NUC041 first sampling time) was 3 min, the “tolerability of IM injection of 3 mg per mouse” value ([6]; 50 µg IP dexamethasone 30 min prior) was “without weight loss or lethality” and the “maximum tolerated dose (MTD)” value ([6]; IM qod, no premedication, mice) was 0.6 mg/mouse. The MTD [6, 11] was greater than 3 mg/mouse and the “MTD as mean dose” value [6, 11] was greater than 123.8 mg/kg.

For `Nc1ncn([C@@H]2O[C@H](CO)[C@@H](O)C2(F)F)c(=O)n1` [NUC013, 5-aza-2′,2′-difluorodeoxycytidine], the deaths in group (human NSCLC NCI-H460 [1]) was “One”, the “mice that developed tumor ulceration” value (human NSCLC NCI-H460 [1]) was 1 of 10 and the “hazard ratio (HR) vs SC” value (human NSCLC NCI-H460 [1]; NUC013 20 mg/kg IV qd three consecutive days per week x 4, p = 0.0018, Log rank test) was 0.14. The GI50 (Colon Cancer HCT-116; Homo sapiens, HCT-116, 72 h exposure) was 2580 nM, the MTD [7] was greater than 120 mg/kg and the GI50 (NSCLC NCI-H460; Homo sapiens, NCI-H460, 72 h exposure) was 1570 nM.

For `Nc1ncn([C@H]2C[C@H](O)[C@@H](CO)O2)c(=O)n1` [decitabine], the MTD [8] is listed as 2 mg/m^2 qd and the “main dose limiting toxicity” value [8] is listed as “neutropenia”.
